# In patent US6342219B1 (Board of Regents, The University of Texas System, priority 1999, dated 2002):
# Test system: NCI-H358 NSCLC and HT29 colon adenocarcinoma xenografts and normal organs
# Assay: In vivo localization to human tumor xenografts in mice
# Parameters: species or system mouse; key to Immunohistochemical Reactivity, Heart / Immunohistochemical Reactivity, Lung / Immunohistochemical Reactivity, Liver / Immunohistochemical Reactivity, Kidney / Immunohistochemical Reactivity, Intestine / Immunohistochemical Reactivity, Spleen / Immunohistochemical Reactivity, Tumor: −, negative; +/−, very weak; 1+, weak; 2+, moderate; 3+, strong; 4+, very strong
# [1] = 24 hours after i.v. antibody, 2C3 in NCI-H358 nu/nu mice, 3E7 and GV39M in HT29 SCID mice
# Procedure: Tumors were grown subcutaneously in immunocompromised mice (NCI-H358 NSCLC in nu/nu mice and HT29 colon adenocarcinoma in SCID mice) until the tumor volume was approximately 1 cm^3. 100μg of unlabeled antibody for studies using SCID mice, or 100 μg of biotinylated antibody for studies using nude mice, was injected intravenously via a tail vein. Twenty four hours later, the mice were anesthetized, perfused with PBS, and tumor and organs including heart, lungs, liver, kidneys, intestines and spleen were collected and snap frozen in liquid nitrogen.
# The tumor and organs from each mouse were sectioned on a cryostat and stained for antibody immunohistochemically as above, with the exception that sections from the nude mice were developed using peroxidase labeled streptavidin-biotin complex (Dako, Carpinteria, Calif.) and the sections from the SCID mice were developed using two peroxidase-conjugated secondary antibodies, a goat anti-mouse IgG+IgM followed by a rabbit anti-goat Ig.
# Twenty-four hours later, the mice were sacrificed, exsanguinated and the tumors and tissues were removed.
substance,measurement,setting,value
"2C3: anti-VEGF monoclonal antibody, IgG2a, k, produced by hybridoma ATCC PTA 1595; blocks VEGF binding to VEGFR2 but not VEGFR1 [Clone 2C3]","Immunohistochemical Reactivity, Heart",[1],−
same,"Immunohistochemical Reactivity, Intestine",[1],−
same,"Immunohistochemical Reactivity, Kidney",[1],−
same,"Immunohistochemical Reactivity, Liver",[1],−
same,"Immunohistochemical Reactivity, Lung",[1],−
same,"Immunohistochemical Reactivity, Spleen",[1],−
same,"Immunohistochemical Reactivity, Tumor","24 hours after i.v. antibody, 3E7 and GV39M bound tumor vascular endothelium, 2C3 tumor stroma",3+
same,In vivo tumor localization pattern,"CT = connective tissue, BV = blood vessels",Moderate to strong
same,In vivo localization in the HT29 human tumor model,HT29,localized strongly to the connective tissue
same,In vivo normal mouse tissue localization,"mouse, in vivo",None detectable
